Data on 9 compounds can be found in ChEMBL document CHEMBL1201862, “PubChem BioAssay data set” (2004).

The source made the active and inactive calls.

Experiment [1] has as its target T1, Nucleotide-binding oligomerization domain-containing protein 1 (Homo sapiens, UniProt Q9Y239).
T1 sequence (Q9Y239 whole entry): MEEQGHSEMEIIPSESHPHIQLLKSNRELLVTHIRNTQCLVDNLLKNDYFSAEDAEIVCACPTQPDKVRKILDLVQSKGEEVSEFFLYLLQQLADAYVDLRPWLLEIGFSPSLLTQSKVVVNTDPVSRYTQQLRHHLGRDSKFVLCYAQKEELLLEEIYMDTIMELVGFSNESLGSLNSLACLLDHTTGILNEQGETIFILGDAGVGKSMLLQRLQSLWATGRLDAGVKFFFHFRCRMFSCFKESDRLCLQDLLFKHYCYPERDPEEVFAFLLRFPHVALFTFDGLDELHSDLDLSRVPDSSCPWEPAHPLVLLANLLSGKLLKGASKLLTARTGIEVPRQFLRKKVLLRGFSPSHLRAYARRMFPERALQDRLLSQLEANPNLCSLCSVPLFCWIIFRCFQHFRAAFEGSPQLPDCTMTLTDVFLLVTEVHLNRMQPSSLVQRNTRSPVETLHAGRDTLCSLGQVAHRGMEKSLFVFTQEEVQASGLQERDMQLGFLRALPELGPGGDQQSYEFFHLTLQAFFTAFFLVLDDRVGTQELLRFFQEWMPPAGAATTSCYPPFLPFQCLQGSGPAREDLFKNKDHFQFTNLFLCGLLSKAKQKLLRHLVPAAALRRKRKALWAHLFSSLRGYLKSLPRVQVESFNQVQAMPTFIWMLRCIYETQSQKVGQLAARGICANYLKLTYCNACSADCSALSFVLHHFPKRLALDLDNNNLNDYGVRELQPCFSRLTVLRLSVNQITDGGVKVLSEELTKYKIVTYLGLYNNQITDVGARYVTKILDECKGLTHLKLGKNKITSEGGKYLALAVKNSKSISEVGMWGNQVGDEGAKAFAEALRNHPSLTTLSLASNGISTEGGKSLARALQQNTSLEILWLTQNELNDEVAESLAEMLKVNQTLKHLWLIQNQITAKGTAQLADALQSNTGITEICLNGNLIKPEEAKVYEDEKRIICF
The experiment is described as follows: NOD1 signaling inhibitors, SAR follow-up, revised (AID 2333). The format is functional.

The target in experiment [2] is Nucleotide-binding oligomerization domain-containing protein 2 (Homo sapiens, UniProt Q9HC29). As to the kind of experiment: PubChem AID 2334. Type of experiment: functional.
The target in another experiment is Tumor necrosis factor (Homo sapiens, UniProt P01375). The experiment is described as follows: TNFa-triggered NF-kB activation inhibitors, SAR follow-up, cell-based, revised (AID 2337). Type of experiment: functional.
Another experiment relates to HEK293. As to the kind of experiment: cells. To be noted: Homo sapiens.
The target of experiment [3] is Eukaryotic translation initiation factor 4H (Homo sapiens, UniProt Q15056). As to the kind of experiment: human eIF4H binding inhibitors, primary screen, translation initiation inhibitor project, biochemical, uHTS, fluorescence polarization (AID 2012).
In experiment [4] the target is Polyadenylate-binding protein 1 (Homo sapiens, UniProt P11940). As to the kind of experiment: PABP poly(A) RNA binding inhibitors, primary screen, biochemical, fluorescence polarization, uHTS (AID 2014).
The next experiment deals with Streptococcus. The experiment is described as follows: Group A Streptococcus viability loss, dose response, counter-screen for streptokinase expression inhibitor project, luminescence, BacTiterGlo (AID 1915).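 Also: potency for reduction of bacterial viability or growth.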 Type of experiment: functional, organism-based. On the technique in general: The purpose of a counterscreen is to sort out artefacts and off-target activity.
In experiment [5] the test system is Streptococcus sp. 'group A'. The experiment is described as follows: growth inhibition of control SK(-) GAS strain, dose response, counter-screen for streptokinase expression inhibitor project, luminescence, kanamycin, BacTiterGlo, confirmation (AID 1900). The format is functional, organism-based.
Another experiment deals with T2, Streptokinase A (Streptococcus pyogenes serotype M1, UniProt P10520).
T2 sequence (P10520 whole entry): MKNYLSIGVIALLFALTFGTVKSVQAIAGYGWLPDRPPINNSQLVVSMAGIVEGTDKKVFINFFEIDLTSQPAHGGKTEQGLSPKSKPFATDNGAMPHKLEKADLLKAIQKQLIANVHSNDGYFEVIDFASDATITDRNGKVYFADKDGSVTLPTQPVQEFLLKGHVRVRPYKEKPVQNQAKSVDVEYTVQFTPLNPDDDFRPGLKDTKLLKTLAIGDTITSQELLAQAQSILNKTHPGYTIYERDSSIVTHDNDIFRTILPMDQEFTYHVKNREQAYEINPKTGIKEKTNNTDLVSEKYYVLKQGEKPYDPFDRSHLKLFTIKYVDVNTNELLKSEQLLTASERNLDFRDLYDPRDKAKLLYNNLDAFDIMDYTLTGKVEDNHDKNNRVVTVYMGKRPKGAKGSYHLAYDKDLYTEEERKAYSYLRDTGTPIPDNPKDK
As to the kind of experiment: S. pyogenes streptokinase expression inhibitors, potency, dose response, plasminogen activation absorbance, OD405 (AID 1914).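 Also: secreted streptokinase activity via plasminogen activation per viability signal from cell pellet.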 The format is functional, Streptococcus pyogenes M1 GAS.

Another experiment has as its target Beta-galactosidase (Escherichia coli, UniProt Q8VNN2). The experiment is described as follows: beta-galactosidase enzyme inhibitors and activators, dose response, artefact control for CCR6 antagonist project, biochemical, E. coli enzyme, set 3 (AID 504712). Type of experiment: functional.
A short description of experiment [6]: HEp-2 cell cytotoxicity, dose response, cytotoxicity control for RSV inhibitor project, HTS (AID 2410). Type of experiment: functional. To be noted: human respiratory syncytial virus.
In experiment [7] the target is DNA dC->dU-editing enzyme APOBEC-3G (Homo sapiens, UniProt Q9HC16). The experiment is described as follows: Dose Response confirmation of small molecule APOBEC3G DNA Deaminase Inhibitors via a fluorescence-based single-stranded DNA deaminase assay. [Related pubchem assays (depositor defined):AID493012, AID493028]. The format is functional.
A further experiment deals with T3, Bcl-2-like protein 10 (Homo sapiens, UniProt Q9HD36).
T3 sequence (Q9HD36 whole entry): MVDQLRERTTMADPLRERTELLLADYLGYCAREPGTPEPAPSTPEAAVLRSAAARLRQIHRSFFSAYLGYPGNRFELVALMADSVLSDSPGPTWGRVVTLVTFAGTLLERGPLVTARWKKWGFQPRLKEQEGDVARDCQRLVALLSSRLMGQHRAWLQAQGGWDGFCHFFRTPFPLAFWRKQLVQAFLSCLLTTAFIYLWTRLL
The experiment is described as follows: displacers of TR3 peptide from Bcl-B, primary screen, selectivity assay for Bfl-1 inhibitor project, biochemical, fluorescence polarization, FITC-TR3 peptide (AID 748).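 Also: fluorescence polarization from a fluorescein-labelled TR3 peptide binding purified Bcl-B.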

In another experiment the test system is HeLa. The experiment is described as follows: HeLa cell cytotoxicity, dose response, cytotoxicity control, 24 h, cherry-picked samples (AID 504726).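 Also: potency for cytotoxicity as loss of luminescence signal.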 Type of experiment: functional, cell-based. To be noted: Homo sapiens.

Sequence of Nucleotide-binding oligomerization domain-containing protein 2 (Q9HC29 whole entry, the tested form may be a part): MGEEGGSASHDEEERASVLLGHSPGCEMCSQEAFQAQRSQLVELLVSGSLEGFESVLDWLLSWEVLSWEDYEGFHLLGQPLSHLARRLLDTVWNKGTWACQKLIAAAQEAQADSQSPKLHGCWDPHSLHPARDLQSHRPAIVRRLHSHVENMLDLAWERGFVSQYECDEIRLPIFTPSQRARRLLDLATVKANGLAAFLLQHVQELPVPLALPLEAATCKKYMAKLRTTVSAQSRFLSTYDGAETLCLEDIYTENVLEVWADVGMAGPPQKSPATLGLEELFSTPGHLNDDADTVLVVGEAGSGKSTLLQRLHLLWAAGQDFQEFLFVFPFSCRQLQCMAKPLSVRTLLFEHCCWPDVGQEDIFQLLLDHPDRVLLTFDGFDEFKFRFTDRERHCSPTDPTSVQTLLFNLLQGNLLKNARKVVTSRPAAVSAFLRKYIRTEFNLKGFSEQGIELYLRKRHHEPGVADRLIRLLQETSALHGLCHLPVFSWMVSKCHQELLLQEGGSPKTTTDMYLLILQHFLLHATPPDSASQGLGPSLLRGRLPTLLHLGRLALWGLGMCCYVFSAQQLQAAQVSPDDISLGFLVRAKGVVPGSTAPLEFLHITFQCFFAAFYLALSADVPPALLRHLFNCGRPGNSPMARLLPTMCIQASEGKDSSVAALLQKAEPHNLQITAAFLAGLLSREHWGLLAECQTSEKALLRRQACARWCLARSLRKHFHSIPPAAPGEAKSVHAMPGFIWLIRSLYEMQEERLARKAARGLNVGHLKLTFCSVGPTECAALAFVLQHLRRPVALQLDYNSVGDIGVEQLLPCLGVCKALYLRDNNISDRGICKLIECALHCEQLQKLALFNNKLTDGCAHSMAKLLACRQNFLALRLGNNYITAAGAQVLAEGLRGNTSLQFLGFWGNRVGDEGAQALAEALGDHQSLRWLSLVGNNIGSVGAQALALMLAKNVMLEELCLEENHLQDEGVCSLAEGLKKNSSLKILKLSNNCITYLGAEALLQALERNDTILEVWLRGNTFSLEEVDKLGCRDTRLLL
Sequence of Tumor necrosis factor (P01375 whole entry): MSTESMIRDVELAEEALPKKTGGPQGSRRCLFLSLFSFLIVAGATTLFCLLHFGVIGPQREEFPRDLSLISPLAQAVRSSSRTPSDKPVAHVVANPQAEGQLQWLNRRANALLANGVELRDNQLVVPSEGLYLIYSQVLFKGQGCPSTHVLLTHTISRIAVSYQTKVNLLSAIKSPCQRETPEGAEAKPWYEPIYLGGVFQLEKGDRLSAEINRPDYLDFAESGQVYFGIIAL
Sequence of Polyadenylate-binding protein 1 (P11940 whole entry): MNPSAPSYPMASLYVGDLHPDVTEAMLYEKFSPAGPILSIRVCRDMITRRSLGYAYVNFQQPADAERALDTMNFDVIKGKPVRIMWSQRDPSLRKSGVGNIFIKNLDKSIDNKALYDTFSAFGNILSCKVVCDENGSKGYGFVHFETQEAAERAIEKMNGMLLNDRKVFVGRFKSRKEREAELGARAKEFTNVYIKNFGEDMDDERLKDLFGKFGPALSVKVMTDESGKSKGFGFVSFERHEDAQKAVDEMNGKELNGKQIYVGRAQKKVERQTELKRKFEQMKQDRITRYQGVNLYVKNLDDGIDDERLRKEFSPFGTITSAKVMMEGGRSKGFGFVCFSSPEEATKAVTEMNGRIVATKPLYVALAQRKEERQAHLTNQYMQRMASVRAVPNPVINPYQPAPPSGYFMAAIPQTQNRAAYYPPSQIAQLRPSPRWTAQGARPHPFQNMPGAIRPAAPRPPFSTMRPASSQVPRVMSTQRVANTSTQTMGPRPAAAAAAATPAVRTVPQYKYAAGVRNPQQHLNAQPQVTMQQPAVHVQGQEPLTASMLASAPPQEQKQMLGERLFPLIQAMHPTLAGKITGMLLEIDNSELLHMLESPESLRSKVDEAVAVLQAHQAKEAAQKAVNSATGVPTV
Sequence of DNA dC->dU-editing enzyme APOBEC-3G (Q9HC16 whole entry): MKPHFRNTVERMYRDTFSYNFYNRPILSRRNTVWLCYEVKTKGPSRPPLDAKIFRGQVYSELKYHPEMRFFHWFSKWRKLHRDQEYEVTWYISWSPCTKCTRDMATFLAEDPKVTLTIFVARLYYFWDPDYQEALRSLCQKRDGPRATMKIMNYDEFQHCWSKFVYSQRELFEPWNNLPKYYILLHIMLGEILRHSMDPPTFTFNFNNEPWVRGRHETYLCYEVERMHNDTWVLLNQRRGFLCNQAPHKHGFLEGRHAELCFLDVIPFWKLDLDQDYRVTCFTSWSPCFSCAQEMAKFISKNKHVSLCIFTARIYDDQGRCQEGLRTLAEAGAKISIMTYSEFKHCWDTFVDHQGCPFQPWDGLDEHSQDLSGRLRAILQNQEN
Sequence of Beta-galactosidase (Q8VNN2 whole entry): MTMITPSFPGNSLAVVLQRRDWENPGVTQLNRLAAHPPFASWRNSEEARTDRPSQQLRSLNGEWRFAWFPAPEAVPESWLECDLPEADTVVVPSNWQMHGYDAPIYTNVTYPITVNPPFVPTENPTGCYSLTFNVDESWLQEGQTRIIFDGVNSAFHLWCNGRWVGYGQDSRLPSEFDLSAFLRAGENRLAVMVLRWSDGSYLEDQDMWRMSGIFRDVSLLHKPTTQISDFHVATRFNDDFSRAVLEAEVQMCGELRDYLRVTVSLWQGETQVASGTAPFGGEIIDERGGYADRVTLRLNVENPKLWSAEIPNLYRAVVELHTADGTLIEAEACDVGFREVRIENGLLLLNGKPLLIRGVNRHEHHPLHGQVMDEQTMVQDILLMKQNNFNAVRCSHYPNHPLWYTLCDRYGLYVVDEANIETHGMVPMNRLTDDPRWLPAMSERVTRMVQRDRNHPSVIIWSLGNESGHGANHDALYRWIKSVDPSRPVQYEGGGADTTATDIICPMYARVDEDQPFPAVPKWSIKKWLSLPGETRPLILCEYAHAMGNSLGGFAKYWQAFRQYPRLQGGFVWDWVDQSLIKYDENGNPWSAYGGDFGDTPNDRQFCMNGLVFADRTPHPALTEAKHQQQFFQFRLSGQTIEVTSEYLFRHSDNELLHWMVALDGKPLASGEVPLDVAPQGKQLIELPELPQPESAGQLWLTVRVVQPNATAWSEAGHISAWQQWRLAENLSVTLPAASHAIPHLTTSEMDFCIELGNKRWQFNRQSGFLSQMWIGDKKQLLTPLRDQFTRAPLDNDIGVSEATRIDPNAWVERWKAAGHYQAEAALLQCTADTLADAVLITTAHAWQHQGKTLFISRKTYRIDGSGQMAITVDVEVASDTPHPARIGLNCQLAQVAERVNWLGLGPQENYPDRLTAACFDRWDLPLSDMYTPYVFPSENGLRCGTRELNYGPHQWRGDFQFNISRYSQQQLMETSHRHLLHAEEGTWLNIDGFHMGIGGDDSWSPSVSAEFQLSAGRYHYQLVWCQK

For `Cc1ccc2cccc(N=Cc3c(C)[nH]n(-c4ccccc4)c3=O)c2n1`, the IC50 (in [1]; in [2]; on Tumor necrosis factor; in the experiment on HEK293) was > 20 µM (inactive) each time.
For the compound `C[n+]1ccccc1/C=C/c1ccc(F)c(F)c1`, the half-inhibitory concentration (IC50) is 97.9 µM (active) in [3] and 4.32 µM (active) in experiment [4].
Regarding `CCCCCCC(=O)NN/C=C1\C(=O)NC(=S)N(C(C)CC)C1=O` (configuration not stated), the EC50 is 9.29 µM (active) with Streptococcus, 5.17 µM (active) in experiment [5] and > 150 µM (not active) at Streptokinase A. The IC50 on Beta-galactosidase is > 66.6 µM (inactive).
Turning to `O=C(Nc1nc2ccccc2n1Cc1ccc(Cl)cc1)c1ccccc1`, the IC50 (in experiment [1]; in experiment [2]; on Tumor necrosis factor; in the experiment on HEK293) was > 20 µM (inactive) each time.
As for `CC1=C(C(=O)OC(C)C)C(c2ccco2)NC(=O)N1` (configuration not stated), the IC50 in [3] is 34.7 µM (active); in experiment [4] it was 42.8 µM (active).
In the case of `c1ccc(-c2nn3c(Cn4cnc5ccccc54)nnc3s2)cc1`, in experiment [6], the half-maximal cytotoxic concentration (CC50) is 42.6 µM (active). The IC50 in the experiment “cells” was 5.46 µM (active); in [7], > 100 µM (inactive).
As to `COC(=O)c1[nH]c2ccc(C)cc2c1NC(=O)CCN1CCN(Cc2ccc3c(c2)OCO3)CC1`, at Bcl-2-like protein 10, the IC50 was > 100 µM (inactive).
Consider `Oc1nc(S)nc2c1C(c1ccc(Br)cc1)c1c(O)nc(S)nc1O2`, for which the AC50 in the experiment on HeLa was > 350 µM (inactive).
Consider `O=S(=O)(c1ccccc1)N(CC(O)CN1CCCCC1)c1ccccc1` (configuration not stated), for which the IC50 at Bcl-2-like protein 10 is > 100 µM (inactive).

For orientation: IC50 means the concentration that gives 50% inhibition. Broadly, the EC50 is the midpoint of the concentration-response curve. A word on the CC50: it is the concentration that lowers cell viability or growth by half. Usually AC50 stands for the concentration giving half of the maximal activity seen.
